Reference: the NIST ThermoML archive (doi:10.1021/je060096y)
Numbers after ± are expanded uncertainties.

Conditions: for mass density: 298.15 K, 101.33 kPa, Liquid, Pycnometric method; for Glass transition temperature / Normal melting temperature: DTA; for Normal melting temperature: Crystal

Structure (SMILES) | mass density | Glass transition temperature | Normal melting temperature
CCCCCCCCn1cc[n+](C)c1.O=S(=O)([N-]S(=O)(=O)C(F)(F)F)C(F)(F)F | 1310 ± 20 kg/m3 | -86.00 ± 2 °C | –
CCCC[n+]1ccc(C)cc1.O=S(=O)([N-]S(=O)(=O)C(F)(F)F)C(F)(F)F | 1350 ± 20 kg/m3 | -80.00 ± 2 °C | 10.00 ± 2 °C
CCCC[n+]1ccc(C)cc1.O=S(=O)([O-])C(F)(F)C(F)(F)C(F)(F)C(F)(F)F | – | -34.00 ± 2 °C | 70.00 ± 2 °C
CCCC[n+]1ccn(C)c1.O=S(=O)([N-]S(=O)(=O)C(F)(F)F)C(F)(F)F | – | – | -4.00 ± 2 °C
CCCCn1cc[n+](C)c1.O=S(=O)([O-])C(F)(F)F [1-butyl-3-methylimidazolium trifluoromethanesulfonate] | – | – | 15.00 ± 2 °C
CCCC[n+]1ccc(C)cc1.O=S(=O)([O-])C(F)(F)F [1-butyl-4-methylpyridinium trifluoromethanesulfonate] | 1170 ± 20 kg/m3 | -68.00 ± 2 °C | 38.00 ± 2 °C
CCCCCCCCn1cc[n+](C)c1.O=S(=O)([O-])C(F)(F)C(F)(F)C(F)(F)C(F)(F)F [1-methyl-3-octylimidazolium perfluorobutanesulfonate] | 1330 ± 20 kg/m3 | -86.00 ± 2 °C | 32.00 ± 2 °C
CCCCCCCCn1cc[n+](C)c1.O=S(=O)([O-])C(F)(F)F [1-octyl-3-methylimidazolium trifluoromethanesulfonate] | 1120 ± 20 kg/m3 | -80.00 ± 2 °C | 5.00 ± 2 °C
CCCCCCCCn1cc[n+](C)c1.N#C[N-]C#N [3-methyl-1-octylimidazolium dicyanamide] | 1000 ± 20 kg/m3 | -89.00 ± 2 °C | -5.00 ± 2 °C
